What follows are compounds tested on HCT-116 cells (assay: Calcein AM viability assay, HCT-116). Conditions: Homo sapiens, HCT-116, non-protein adjusted, Table 4; read-out: HCT-116 viability IC50.
Type: cell-based
Description: The potency of the subject kinase inhibitors, as measured by loss of cellular viability, was determined with the Calcein AM assay (Molecular Probes). Calcein AM is a substrate of intracellular esterases, which is cleaved only in viable cells to generate a fluorescent product that can be quantified with a fluorescent plate reader. The fluorescent signal is proportional to the number of viable cells, and thus loss of signal in response to the exposure of cells to the subject kinase inhibitors correlates with a loss of viability. This assay not only distinguishes cell cycle arrest, in which cells may still by viable, from loss of viability, and is thus well suited for the evaluation of the subject kinase inhibitors. A compound that is a potent cytotoxic agent may cause significant loss of cell viability in such an assay.
Cellular IC50's were determined in the human colorectal carcinoma cell line, HCT-116, and the normal human fibroblast, IMR90. Protein adjusted IC50's were also determined in HCT-116. Results of such viability assays are presented in Table 2 (HCT-116 (viability/protein adjusted) and IMR-90). IC50's (μM, non-protein adjusted) for the viability assay against HCT-116 cells are shown for further compounds of the invention in Table 4.
HCT-116 or IMR90 cells were recovered from sub-confluent plates by trypsinization and 1,000 or 4,000 cells, respectively, were plated in 24-well dishes and incubated overnight at 37° C., 5% CO2. HCT-116 cells were cultured in RPMI-1640, 10% FCS, and IMR90 cells were cultured in Minimum Essential Medium-alpha, 10% FCS. After overnight incubation to allow adherence, the media was aspirated from each well and replaced with media containing a test compound at a concentration from 0 to 250 nM, spanning a total of 7 doses. The plates were returned to the incubator and cultured for an additional 72 hours (3 days). […] After 72-hours incubation with the test compound, the cells were washed twice with 1×PBS, taking special care to remove all residual buffer.
A 5 μM Calcein AM solution was prepared by dissolving a 50 μg aliquot of Calcein (Molecular Probes catalog #C3100) in 50 μl DMSO. After the Calcein had completely dissolved (10 minutes at room temperature), it was diluted into 10 ml PBS. Calcein/PBS (0.5 ml) was added to each well. The plates were incubated for 75 minutes at 37° C. (protected from light) and the fluorescent signal was read on a fluorescent plate reader (excitation 485/20 and emission 530/25).

Row | SMILES | IC50 [nM]
1 | O=C(Nc1cccc2c1C(=O)c1c-2n[nH]c1-c1ccc(OCCN2CCOCC2)cc1)NN1CCOCC1 [Compound A3] | < 100
2 | O=C(Nc1cccc2c1C(=O)c1c(-c3ccc(CN4CCCC4)cc3)n[nH]c1-2)NN1CCOCC1 [Compound A51] | < 100
3 | O=C(Nc1cccc2c1C(=O)c1c-2n[nH]c1-c1ccc(OCC(=O)N2CCOCC2)cc1)NN1CCOCC1 [Compound A36] | < 10
4 | O=C(Nc1cccc2c1C(=O)c1c(-c3ccc(OCCN4CCOCC4)cc3Cl)n[nH]c1-2)NN1CCOCC1 [Compound A28] | < 100
5 | CN1CCN(NC(=O)Nc2cccc3c2C(=O)c2c-3n[nH]c2-c2ccc(OCC(=O)N3CCCC3)cc2)CC1 [Compound A44] | < 100
6 | Cc1noc(COc2ccc(-c3[nH]nc4c3C(=O)c3c(NC(=O)NN5CCOCC5)cccc3-4)cc2)n1 [Compound A35] | < 100
7 | Cc1noc(COc2ccc(-c3[nH]nc4c3C(=O)c3c(NC(=O)NN5CCN(C)CC5)cccc3-4)cc2)n1 [Compound A45] | < 10
8 | CN(C)C(=O)CN1CCN(NC(=O)Nc2cccc3c2C(=O)c2c-3n[nH]c2-c2ccc(OCCN3CCCC3)cc2)CC1 [Compound A41] | < 100
9 | CN1CCN(CCOc2ccc(-c3n[nH]c4c3C(=O)c3c(NC(=O)NN5CCN(C)CC5)cccc3-4)c(F)c2)CC1 [Compound A13] | < 10
10 | CN1CCN(NC(=O)Nc2cccc3c2C(=O)c2c(-c4ccc(OCCN5CCCC5)cc4F)n[nH]c2-3)CC1 [Compound A12] | < 100
11 | Cc1cc(-c2[nH]nc3c2C(=O)c2c(NC(=O)NN4CCOCC4)cccc2-3)ccc1OCCN1CCN(C(C)C)CC1 [Compound A24] | < 10
12 | CN1CCN(C(=O)COc2ccc(-c3n[nH]c4c3C(=O)c3c(NC(=O)NN5CCOCC5)cccc3-4)cc2)CC1 [Compound A77] | < 100
13 | CCOC(=O)COc1ccc(-c2[nH]nc3c2C(=O)c2c(NC(=O)NN4CCOCC4)cccc2-3)cc1 [Compound A65] | < 100
14 | CN(C)C(=O)COc1ccc(-c2[nH]nc3c2C(=O)c2c(NC(=O)NN4CCOCC4)cccc2-3)cc1 [Compound A34] | < 100
15 | CC(C)N1CCN(S(=O)(=O)c2ccc(-c3[nH]nc4c3C(=O)c3c(NC(=O)NN5CCOCC5)cccc3-4)cc2)CC1 [Compound A57] | < 100
16 | O=C(Nc1cccc2c1C(=O)c1c(-c3ccc(OCC(=O)N4CCN(c5ccccn5)CC4)cc3)n[nH]c1-2)NN1CCOCC1 [Compound A81] | < 100
17 | Cc1cc(OCCn2cccn2)ccc1-c1[nH]nc2c1C(=O)c1c(NC(=O)NN3CCN(C)CC3)cccc1-2 [Compound A11] | < 100
18 | CCN1CCN(C(=O)COc2ccc(-c3n[nH]c4c3C(=O)c3c(NC(=O)NN5CCOCC5)cccc3-4)cc2)CC1 [Compound A78] | < 10
19 | O=C(Nc1cccc2c1C(=O)c1c(-c3ccc(OCC(=O)N4CCN(c5ccccc5)CC4)cc3)n[nH]c1-2)NN1CCOCC1 [Compound A80] | < 100
20 | O=C(Nc1cccc2c1C(=O)c1c(-c3ccc(OCC(=O)N4CCN(Cc5ccccc5)CC4)cc3)n[nH]c1-2)NN1CCOCC1 [Compound A79] | < 100

Row | SMILES | IC50 [nM]
21 | O=C(Nc1cccc2c1C(=O)c1c-2n[nH]c1-c1ccc(S(=O)(=O)N2CCNCC2)cc1)NN1CCOCC1 [Compound A56] | < 100
22 | Cc1cc(OCCN2CCOCC2)ccc1-c1[nH]nc2c1C(=O)c1c(NC(=O)NN3CCN(C)CC3)cccc1-2 [Compound A7] | < 100
23 | O=C(Nc1cccc2c1C(=O)c1c(-c3ccc(CN4CCOCC4)cc3)n[nH]c1-2)NN1CCOCC1 [Compound A47] | < 10
24 | O=C(Nc1cccc2c1C(=O)c1c(-c3ccc(CN4CCN(c5ccccn5)CC4)cc3)n[nH]c1-2)NN1CCOCC1 [Compound A82] | < 100
25 | CC(C)N1CCN(CCOc2ccc(-c3n[nH]c4c3C(=O)c3c(NC(=O)NN5CCOCC5)cccc3-4)c(F)c2)CC1 [Compound A16] | < 100
26 | Cc1cc(OCCN2CCCCC2)ccc1-c1[nH]nc2c1C(=O)c1c(NC(=O)NN3CCN(C)CC3)cccc1-2 [Compound A8] | < 100
27 | CC(C)N1CCN(NC(=O)Nc2cccc3c2C(=O)c2c-3n[nH]c2-c2ccc(OCCN3CCCC3)cc2)CC1 [Compound A23] | < 100
28 | Cc1cc(-c2[nH]nc3c2C(=O)c2c(NC(=O)NN4CCOCC4)cccc2-3)ccc1OCCN1CCCC1 [Compound A25] | < 10
29 | COc1cc(-c2[nH]nc3c2C(=O)c2c(NC(=O)NN4CCOCC4)cccc2-3)ccc1OCCN1CCCC1 [Compound A31] | < 100
30 | O=C(Nc1cccc2c1C(=O)c1c-2n[nH]c1-c1ccc(O)c(CN2CCOCC2)c1)NN1CCOCC1 [Compound A10] | < 100
31 | CC(C)N1CCN(CCCOc2ccc(-c3[nH]nc4c3C(=O)c3c(NC(=O)NN5CCOCC5)cccc3-4)cc2)CC1 [Compound A20] | < 100
32 | Cc1cc(-c2[nH]nc3c2C(=O)c2c(NC(=O)NN4CCN(C)CC4)cccc2-3)ccc1OCCN1CCN(C(C)C)CC1 [Compound A18] | < 100
33 | O=C(O)COc1ccc(-c2n[nH]c3c2C(=O)c2c(NC(=O)NN4CCOCC4)cccc2-3)cc1 [Compound A68] | < 1000
34 | CN1CCN(Cc2ccc(-c3n[nH]c4c3C(=O)c3c(NC(=O)NN5CCOCC5)cccc3-4)cc2)CC1 [Compound A49] | < 100
35 | CCOC(=O)CN1CCN(NC(=O)Nc2cccc3c2C(=O)c2c-3n[nH]c2-c2ccc(OCCN3CCCC3)cc2)CC1 [Compound A26] | < 10
36 | CC(C)N1CCN(CCOc2ccc(-c3n[nH]c4c3C(=O)c3c(NC(=O)NN5CCOCC5)cccc3-4)cc2F)CC1 [Compound A22] | < 100
37 | Cc1cc(OCCN2CCN(C(C)C)CC2)ccc1-c1[nH]nc2c1C(=O)c1c(NC(=O)NN3CCN(C)CC3)cccc1-2 [Compound A19] | < 100
38 | O=C(Nc1cccc2c1C(=O)c1c(-c3ccc(OCc4nnn[nH]4)cc3)n[nH]c1-2)NN1CCOCC1 [Compound A74] | > 250
39 | O=C(Nc1cccc2c1C(=O)c1c(-c3ccc(OCCN4CCOCC4)c(F)c3)n[nH]c1-2)NN1CCOCC1 [Compound A27] | < 100
40 | O=C(Nc1cccc2c1C(=O)c1c-2n[nH]c1-c1ccc(OCC(=O)N2CCCC2)cc1)NN1CCOCC1 [Compound A46] | < 100

The remaining lines, values ahead:

Row | IC50 [nM] | SMILES
41 | < 1000 | O=C(Nc1cccc2c1C(=O)c1c(-c3ccc(CN4CCN(c5cccc(C(F)(F)F)c5)CC4)cc3)n[nH]c1-2)NN1CCOCC1 [Compound B7]
42 | < 10 | O=C(Nc1cccc2c1C(=O)c1c-2n[nH]c1-c1ccc(CN2CCN(c3ncccn3)CC2)cc1)NN1CCOCC1 [Compound B15]
43 | < 10 | O=C(Nc1cccc2c1C(=O)c1c-2n[nH]c1-c1ccc(CN2CCN(c3ccncc3)CC2)cc1)NN1CCOCC1 [Compound B14]
44 | < 250 | O=C(Nc1cccc2c1C(=O)c1c-2n[nH]c1-c1ccc(OCC(=O)N2CCNCC2)cc1)NN1CCOCC1 [Compound C5]
45 | < 100 | O=C(Nc1cccc2c1C(=O)c1c(-c3ccc(CN4CC[C@@H](O)C4)cc3)n[nH]c1-2)NN1CCOCC1 [Compound B8]
46 | < 100 | O=C(Nc1cccc2c1C(=O)c1c(-c3ccc(CN4CCC(O)CC4)cc3)n[nH]c1-2)NN1CCOCC1 [Compound B5]
47 | < 10 | O=C(Nc1cccc2c1C(=O)c1c(-c3ccc(CNCc4ccccn4)cc3)n[nH]c1-2)NN1CCOCC1 [Compound B13]
48 | < 100 | O=C(Nc1cccc2c1C(=O)c1c(-c3ccc(CNCCOCCO)cc3)n[nH]c1-2)NN1CCOCC1 [Compound B4]
49 | < 100 | O=C(Nc1cccc2c1C(=O)c1c(-c3ccc(CNCc4cccnc4)cc3)n[nH]c1-2)NN1CCOCC1 [Compound B12]
50 | < 100 | O=C(Nc1cccc2c1C(=O)c1c(-c3ccc(CNCCO)cc3)n[nH]c1-2)NN1CCOCC1 [Compound B10]
51 | < 100 | O=C(Nc1cccc2c1C(=O)c1c(-c3ccc(CN4CCN(CCO)CC4)cc3)n[nH]c1-2)NN1CCOCC1 [Compound B3]
52 | < 1000 | O=C(Nc1cccc2c1C(=O)c1c(-c3ccc(CNCC(O)CO)cc3)n[nH]c1-2)NN1CCOCC1 (stereo not drawn) [Compound B11]
53 | < 10 | CC(C)N1CCN(Cc2ccc(-c3[nH]nc4c3C(=O)c3c(NC(=O)NN5CCOCC5)cccc3-4)cc2)CC1 [Compound B17]
54 | < 1000 | O=C(Nc1cccc2c1C(=O)c1c(-c3ccc(CNC(CO)CO)cc3)n[nH]c1-2)NN1CCOCC1 [Compound B1]
55 | < 100 | O=C(Nc1cccc2c1C(=O)c1c(-c3ccc(CN(CCO)CCO)cc3)n[nH]c1-2)NN1CCOCC1 [Compound B2]
56 | < 100 | O=C(Nc1cccc2c1C(=O)c1c(-c3ccc(CN4CCC[C@H]4CO)cc3)n[nH]c1-2)NN1CCOCC1 [Compound B6]
57 | < 100 | CCOC(=O)C1CCN(Cc2ccc(-c3n[nH]c4c3C(=O)c3c(NC(=O)NN5CCOCC5)cccc3-4)cc2)CC1 [Compound B9]

From patent US20080146555A1, “Uses of Kinase Inhibitors and Compositions Thereof” (GPC Biotech, Inc, priority 2004, published 2008)
